# Assay results reported in PubChem BioAssay (NCI).
#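 96-well plates; 48 h exposure; 5 concentrations. Endpoints by linear interpolation between flanking doses. Not reached: highest tested concentration assigned. GI50 is the concentration that inhibits growth by half. The concentration for full growth arrest is given as TGI.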
# How the values were obtained:
# Assay in all cases: inhibition of tumour cell growth, NCI panel, 48 h
# MDA-MB-468 breast = test system: MDA-MB-468 breast
# IGROV1 ovarian = test system: IGROV1 ovarian
# DU-145 prostate = test system: DU-145 prostate
# K-562 leukemia = test system: K-562 leukemia
# OVCAR-3 ovarian = test system: OVCAR-3 ovarian
# RPMI-8226 leukemia = test system: RPMI-8226 leukemia
# T-47D breast = test system: T-47D breast
# M14 melanoma = test system: M14 melanoma
# SK-MEL-28 melanoma = test system: SK-MEL-28 melanoma
# OVCAR-8 ovarian = test system: OVCAR-8 ovarian
# NCI/ADR-RES ovarian = test system: NCI/ADR-RES ovarian
# HCC-2998 colon = test system: HCC-2998 colon
# HL-60(TB) leukemia = test system: HL-60(TB) leukemia
# A549 NSCLC = test system: A549 NSCLC
# 786-0 renal = test system: 786-0 renal
# HOP-92 NSCLC = test system: HOP-92 NSCLC
# NCI-H23 lung = test system: NCI-H23 lung
# SF-539 CNS = test system: SF-539 CNS
# A498 renal = test system: A498 renal
# SN12C renal = test system: SN12C renal
# MDA-MB-231 breast = test system: MDA-MB-231 breast
# U251 CNS = test system: U251 CNS
# SF-295 CNS = test system: SF-295 CNS
# KM12 colon = test system: KM12 colon
# EKVX NSCLC = test system: EKVX NSCLC
# ACHN renal = test system: ACHN renal
# OVCAR-5 ovarian = test system: OVCAR-5 ovarian
# HCT-15 colon = test system: HCT-15 colon
# PC-3 prostate = test system: PC-3 prostate
# SR leukemia = test system: SR leukemia
# MDA-MB-435 = test system: MDA-MB-435
# NCI-H522 lung = test system: NCI-H522 lung
# OVCAR-4 ovarian = test system: OVCAR-4 ovarian
# SNB-75 CNS = test system: SNB-75 CNS
# LOX IMVI melanoma = test system: LOX IMVI melanoma
# HS 578T breast = test system: HS 578T breast
# CAKI-1 renal = test system: CAKI-1 renal
# MOLT-4 leukemia = test system: MOLT-4 leukemia
# UACC-62 melanoma = test system: UACC-62 melanoma
# SK-MEL-5 melanoma = test system: SK-MEL-5 melanoma
# NCI-H460 lung = test system: NCI-H460 lung
# MALME-3M melanoma = test system: MALME-3M melanoma
# RXF 393 renal = test system: RXF 393 renal
# SNB-19 CNS = test system: SNB-19 CNS
# UO-31 renal = test system: UO-31 renal
# CCRF-CEM leukemia = test system: CCRF-CEM leukemia
# COLO 205 colon = test system: COLO 205 colon
# HOP-62 NSCLC = test system: HOP-62 NSCLC
# SW-620 colon = test system: SW-620 colon
# HT29 colon = test system: HT29 colon
# SK-MEL-2 melanoma = test system: SK-MEL-2 melanoma
# SF-268 CNS = test system: SF-268 CNS
# TK-10 renal = test system: TK-10 renal
# SK-OV-3 ovarian = test system: SK-OV-3 ovarian
# MCF7 breast = test system: MCF7 breast
# UACC-257 melanoma = test system: UACC-257 melanoma
compound,measurement,setting,value
CCC[Se]C(=O)c1ccc(C(=O)[Se]CCC)s1,GI50,MDA-MB-468 breast,< 18 nM
same,TGI,MDA-MB-468 breast,75 nM
same,GI50,IGROV1 ovarian,< 13.1 nM
same,TGI,IGROV1 ovarian,234 nM
same,GI50,DU-145 prostate,95.5 nM
same,TGI,DU-145 prostate,1300 nM
same,GI50,K-562 leukemia,41.4 nM
same,TGI,K-562 leukemia,21.4 µM
same,GI50,OVCAR-3 ovarian,103 nM
same,TGI,OVCAR-3 ovarian,370 nM
same,GI50,RPMI-8226 leukemia,300 nM
same,TGI,RPMI-8226 leukemia,2000 nM
same,GI50,T-47D breast,1030 nM
same,TGI,T-47D breast,10.7 µM
same,GI50,M14 melanoma,< 10 nM
same,TGI,M14 melanoma,< 21.1 nM
same,GI50,SK-MEL-28 melanoma,< 10 nM
same,TGI,SK-MEL-28 melanoma,29.4 nM
same,GI50,OVCAR-8 ovarian,< 10 nM
same,TGI,OVCAR-8 ovarian,45.7 nM
same,GI50,NCI/ADR-RES ovarian,< 10 nM
same,GI50,HCC-2998 colon,239 nM
same,TGI,HCC-2998 colon,1840 nM
same,GI50,HL-60(TB) leukemia,< 10 nM
same,TGI,HL-60(TB) leukemia,662 nM
same,GI50,A549 NSCLC,< 10 nM
same,TGI,A549 NSCLC,85 nM
same,GI50,786-0 renal,172 nM
same,TGI,786-0 renal,2250 nM
same,GI50,HOP-92 NSCLC,< 18.9 nM
same,GI50,NCI-H23 lung,19.7 nM
same,TGI,NCI-H23 lung,114 nM
same,GI50,SF-539 CNS,< 10.7 nM
same,TGI,SF-539 CNS,< 21.8 nM
same,GI50,A498 renal,63.5 nM
same,TGI,A498 renal,917 nM
same,GI50,SN12C renal,< 10 nM
same,GI50,MDA-MB-231 breast,< 10 nM
same,TGI,MDA-MB-231 breast,< 20 nM
same,GI50,U251 CNS,< 10.6 nM
same,TGI,U251 CNS,139 nM
same,GI50,SF-295 CNS,< 14.4 nM
same,TGI,SF-295 CNS,< 38.5 nM
same,GI50,KM12 colon,27.6 nM
same,TGI,KM12 colon,1300 nM
same,GI50,EKVX NSCLC,< 24.6 nM
same,TGI,EKVX NSCLC,82.1 nM
same,GI50,ACHN renal,110 nM
same,TGI,ACHN renal,1220 nM
same,GI50,OVCAR-5 ovarian,< 16.2 nM
same,TGI,OVCAR-5 ovarian,455 nM
same,GI50,HCT-15 colon,54.6 nM
same,TGI,HCT-15 colon,217 nM
same,GI50,PC-3 prostate,22.4 nM
same,TGI,PC-3 prostate,2890 nM
same,GI50,SR leukemia,38.6 nM
same,TGI,SR leukemia,10.3 µM
same,GI50,MDA-MB-435,< 10 nM
same,TGI,MDA-MB-435,19.9 nM
same,GI50,NCI-H522 lung,943 nM
same,TGI,NCI-H522 lung,2770 nM
same,GI50,OVCAR-4 ovarian,2870 nM
same,TGI,OVCAR-4 ovarian,30 µM
same,GI50,SNB-75 CNS,< 33.6 nM
same,TGI,SNB-75 CNS,3.07 µM
same,GI50,LOX IMVI melanoma,< 13.1 nM
same,TGI,LOX IMVI melanoma,< 34.6 nM
same,GI50,HS 578T breast,< 10 nM
same,TGI,HS 578T breast,411 nM
same,GI50,CAKI-1 renal,< 11.2 nM
same,TGI,CAKI-1 renal,175 nM
same,GI50,MOLT-4 leukemia,< 10 nM
same,TGI,MOLT-4 leukemia,5.1 µM
same,GI50,UACC-62 melanoma,22.5 nM
same,TGI,UACC-62 melanoma,556 nM
same,GI50,SK-MEL-5 melanoma,< 49.1 nM
same,TGI,SK-MEL-5 melanoma,159 nM
same,GI50,NCI-H460 lung,< 10 nM
same,TGI,NCI-H460 lung,10.4 nM
same,GI50,MALME-3M melanoma,< 35.2 nM
same,TGI,MALME-3M melanoma,118 nM
same,GI50,RXF 393 renal,< 10 nM
same,TGI,RXF 393 renal,64.4 nM
same,GI50,SNB-19 CNS,< 10 nM
same,TGI,SNB-19 CNS,131 nM
same,GI50,UO-31 renal,< 20 nM
same,TGI,UO-31 renal,341 nM
same,GI50,CCRF-CEM leukemia,1660 nM
same,TGI,CCRF-CEM leukemia,16.1 µM
same,GI50,COLO 205 colon,639 nM
same,TGI,COLO 205 colon,2100 nM
same,GI50,HOP-62 NSCLC,< 12 nM
same,TGI,HOP-62 NSCLC,63.3 nM
same,GI50,SW-620 colon,57.3 nM
same,TGI,SW-620 colon,320 nM
same,GI50,HT29 colon,< 10 nM
same,TGI,HT29 colon,112 nM
same,GI50,SK-MEL-2 melanoma,40.8 nM
same,TGI,SK-MEL-2 melanoma,1140 nM
same,GI50,SF-268 CNS,< 11 nM
same,TGI,SF-268 CNS,67.5 nM
same,GI50,TK-10 renal,121 nM
same,TGI,TK-10 renal,1320 nM
same,GI50,SK-OV-3 ovarian,39.5 nM
same,TGI,SK-OV-3 ovarian,837 nM
same,GI50,MCF7 breast,< 10 nM
same,TGI,MCF7 breast,170 nM
same,GI50,UACC-257 melanoma,58.7 nM
same,TGI,UACC-257 melanoma,1160 nM
